Data on 4 molecules can be found in paper PMC7191901, “Hybrid inhibitors of DNA and HDACs remarkably enhance cytotoxicity in leukaemia cells” (Journal of Enzyme Inhibition and Medicinal Chemistry, 2020).

The subject of one experiment is MCF-7/ADR cells. Description: cells. The class given is cell-based. As to conditions: Homo sapiens, NCI/ADR-RES, 72 h, read-out: GI50, MCF-7/ADR.
The subject of experiment [1] is HL-60 cells. The class given is cell-based, human.
A further experiment deals with MDA-MB-231 cells. The experiment in a line: Cell proliferation (MTS) assay, MDA-MB-231. The class given is cell-based. As to conditions: Homo sapiens, read-out: GI50 values, MDA-MB-231.
The next experiment deals with H1975 cells. Description: cells. It is filed as cell-based. As to conditions: Homo sapiens, NCI-H1975, 72 h, read-out: GI50, H1975.
For experiment [2], the system named is HL-60 cells. Description: Cell proliferation (MTS) assay, HL-60. It is filed as cell-based. Particulars: Homo sapiens, read-out: GI50 values, HL-60.
The subject of the next experiment is A2780 cells. The experiment in a line: Cell proliferation (MTS) assay, A2780. It is filed as cell-based. As to conditions: Homo sapiens, read-out: GI50 values, A2780.
Experiment [3] deals with PARP, caspase 3, and caspase 8. It is filed as cell-based, human.
The next experiment relates to U-937 cells. Description: Cell proliferation (MTS) assay, U-937. It is filed as cell-based. As to conditions: Homo sapiens, read-out: GI50 values, U-937.
The next experiment deals with U266 cells. The experiment in a line: cells. It is filed as cell-based. As to conditions: Homo sapiens, U-266, 72 h, read-out: GI50, U266.
The subject of a further experiment is A549 cells. Description: cells. It is filed as cell-based. Particulars: Homo sapiens, A549, 72 h, read-out: GI50, A549.
The subject of a further experiment is MCF-7 cells. Description: Cell proliferation (MTS) assay, MCF-7. The class given is cell-based. As to conditions: Homo sapiens, MCF7, 72 h, read-out: GI50 values, MCF-7.
Experiment [4] deals with HL-60 cells. The class given is cell-based, human. This is another data set of the same source.
The test system of experiment [5] is Ac-α-tubulin and Ac-histone H3. It is filed as cell-based, human.
Setting [6] is: MDA-MB-231, 3 days (72 h), MTS assay.
The mark [7] stands for this setting: HL-60, 3 days (72 h), MTS assay.
[8] abbreviates: A2780, 3 days (72 h), MTS assay.
The mark [9] stands for this setting: U-937, 3 days (72 h), MTS assay.

Entries after “also recorded” stand apart in the source; their conditions may differ. Like-named read-outs stand apart in the source and are kept apart here.

As to `O=C(O)CCCc1ccc(N(CCCl)CCCl)cc1` [Chlorambucil], the GI50 in the experiment with MCF-7/ADR cells was more than 100 µM; in the experiment on MDA-MB-231 cells (MDA-MB-231, 72 h), more than 100 µM; in the experiment on H1975 cells it was more than 100 µM; in the experiment with HL-60 cells [2] (HL-60, 72 h), 21.1 µM; in the experiment on A2780 cells (A2780, 72 h) it was more than 100 µM; with U-937 cells (U-937, 72 h), 37.7 µM. For the same molecule, the GI50 in the experiment on U266 cells was more than 100 µM; in the experiment with A549 cells, more than 100 µM; in the experiment on MCF-7 cells it was 393 µM. In the experiment on HL-60 cells [1], this molecule yielded a G2/M fraction of 32.2%. In [3], the “concentration required to induce the cleavage of PARP, caspase 3, and caspase 8” value amounted to 30 µM. Besides, the “% DNA content in the tail” value with HL-60 cells [4] came to 2.1%. The “acetylation of α-tubulin and histone H3” value in [5] was “failed to induce the acetylation of α-tubulin and histone H3; also recorded: little acetylation of α-tubulin and histone H3”.

As to `Nc1ccc(CCCC(=O)NO)cc1` [Compound 7, 4–(4-Aminophenyl)-N-hydroxybutanamide], the GI50 is more than 100 µM in the experiment on MDA-MB-231 cells (setting [6]); 60.5 µM with HL-60 cells [2] (setting [7]); more than 100 µM with A2780 cells (setting [8]); 93 µM with U-937 cells (setting [9]); 393 µM with MCF-7 cells (3 days, MTS assay).

As for `CCN(CC)c1ccc(CCCC(=O)NO)cc1` [Compound 8a, 4–(4-(Diethylamino)phenyl)-N-hydroxybutanamide], the GI50 with MDA-MB-231 cells (setting [6]) is 85.1 µM; in the experiment with HL-60 cells [2] (setting [7]), 70.3 µM; with A2780 cells (setting [8]), 81 µM; in the experiment on U-937 cells (setting [9]) it was more than 100 µM; with MCF-7 cells (3 days, MTS assay), 282 µM.

Take `CCCN(CCC)c1ccc(CCCC(=O)NO)cc1` [Compound 8b, 4–(4-(Dipropylamino)phenyl)-N-hydroxybutanamide]: the GI50 was determined as 66.8 µM with MDA-MB-231 cells (setting [6]); 34.4 µM with HL-60 cells [2] (setting [7]); 7.79 µM in the experiment with A2780 cells (setting [8]); 40.2 µM with U-937 cells (setting [9]); 37.8 µM in the experiment on MCF-7 cells (3 days, MTS assay).
